Measurements reported in US5202348A, “Thiarubrine antifungal agents” (The University of British Columbia, priority 1990, dated 1993).
≈ marks a conversion by molar mass, not a printed value. Where two headings read alike, the source gives them in different places.

How the values were obtained:
Streptococcus faecalis = experiment: Minimal inhibitory concentration, agar dilution method; assay type: cell-based; details: Enterococcus faecalis, ATCC29212, 21 h; No. 2, ATCC 29212
Procedure: (§1) Results were obtained by agar dilution method. Mueller Hinton agar plates (pH - 7.4) with different doses of ThD were inoculated with 10^4 cfu/spot and incubated 21 hours at 34°. MIC is the lowest concentration with no growth.

Aspergillus [1] = experiment: as above; assay type: cell-based; details: 21 h
Procedure: as §1

Pseudomonas aeruginosa = experiment: as above; assay type: cell-based
Procedure: as §1

Zanthomonas maltophilia = experiment: as above; assay type: cell-based; details: 21 h; No. 15, strain 3E6
Procedure: as §1

Escherichia coli = experiment: as above; assay type: cell-based; details: ATCC25992, 21 h, read-out: Minimal Inhibitory Concentration
Procedure: as §1

Enterobacter cloacoe = experiment: as above; assay type: cell-based
Procedure: as §1

Enterobacter sp. = experiment: as above; assay type: cell-based; details: 21 h, No. 26, strain 9E7
Procedure: as §1

Klebsiella pneumoniae = experiment: as above; assay type: cell-based; details: ATCC33495, 21 h, No. 7, ATCC 33495
Procedure: as §1

Staphylococcus epidermis = experiment: as above; assay type: cell-based; details: ATCC29972, 21 h, No. 8, ATCC 29972
Procedure: as §1

Klebsiella sp. = experiment: as above; assay type: cell-based; details: 21 h, No. 31
Procedure: as §1

Listeria monocytogenes = experiment: as above; assay type: cell-based
Procedure: as §1

Candida [2] = experiment: as above; assay type: cell-based; details: 21 h
Procedure: as §1

Enterococcus faecalis = experiment: as above; assay type: cell-based; details: 21 h
Procedure: as §1

Acinetobacter = experiment: as above; assay type: cell-based
Procedure: as §1

Staphylococcus aureus = experiment: as above; assay type: cell-based; details: for MIC: Staphylococcus aureus, read-out: Minimal Inhibitory Concentration
Procedure: as §1

Enterobacter aerogenes = experiment: as above; assay type: cell-based; details: Klebsiella aerogenes, ATCC35029, 21 h; No. 6, ATCC 35029
Procedure: as §1

[3] = test system: Enterococcus (gentamycin res.); experiment: as above; assay type: cell-based; details: 21 h, read-out: Minimal Inhibitory Concentration
Procedure: as §1

Serratia marscenes = experiment: as above; assay type: cell-based; details: 21 h, No. 27, strain 3A3
Procedure: as §1

Cryptococcus neoformans = experiment: as above; assay type: cell-based; details: 21 h, No. 9, F548
Procedure: as §1

Candida pseudotropicalis = experiment: as above; assay type: cell-based; details: Kluyveromyces marxianus, 21 h; No. 10
Procedure: as §1

Candida [4] = experiment: Anti-Candida activity (summary); assay type: cell-based; details: Table 14;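 further: Letter grades where Y means active and y means less active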
Aspergillus [5] = experiment: Anti-Aspergillus activity (summary); assay type: cell-based; details: Table 14;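 further: Letter grades where Y means active and y means less active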
L1210 = experiment: Growth inhibition of L1210 during 24 hours exposure; assay type: cell-based, Mouse; details: Mus musculus, L1210; 24 hours exposure; Table 1; read-out: Concentration causing 50% growth inhibition
Procedure: L1210 = Mouse lymphocytic leukemia
(§2) Doses inhibiting growth in 50% were estimated by plotting concentration o
(§3) a logarithmic scale and percent of growth inhibition for 24 hours exposur
(§4) on a probability scale.

E. coli = experiment: Growth inhibition of E. coli during 24 hours exposure; assay type: cell-based, Escherichia coli; details: Escherichia coli; 24 hours exposure; Table 3; read-out: Minimal concentration causing 100% growth inhibition
P815 mastocytoma = experiment: LC50 (24 hrs.), doses required to inhibit growth in 50%, different method; assay type: cell-based; details: Mus musculus, P815, 24 h, read-out: LC50 (24 hrs.), dose required to inhibit growth in 50%
C. albicans [6] = experiment: Decomposition of ThD in 95% ethanol in -20° C. (LC50 on C. albicans); assay type: cell-based; details: Candida albicans
Source text: (§5) Data on degradation of Thiarubrine D (ThD) expressed as changes of concentration required to inhibit growth of C. albicans in 50% during 24 hrs. exposure (Lc50 24 hrs.).

C. albicans [7] = experiment: Temperature and time dependent degradation of ThD in water solution (LC50 on C. albicans); assay type: cell-based; details: Candida albicans
Source text: as §5

[8] = Stability / decomposition of thiarubrines; details: under light
bacteria = experiment: Anti-bacterial activity (summary); assay type: cell-based; details: Table 14
C. albicans [9] = experiment: Growth inhibition of C. albicans during 24 hours exposure; assay type: cell-based, Candida albicans; details: Candida albicans, 24 hours exposure
Procedure: as §2, §3, §4

[10] = Growth inhibition of 3T3 during 24 hours exposure; assay type: cell-based, Mouse; details: mouse, 3t3 cells; Table 2; read-out: Toxicity Index, LC50 3T3 / LC50 C. albicans
Procedure: (§6) 3T3 = Mouse fibroblasts
as §2, §3, §4

3T3 = experiment: Growth inhibition of 3T3 during 24 hours exposure; assay type: cell-based, Mouse; details: Mus musculus, NIH3T3; 24 hours exposure; Table 1; read-out: Concentration causing 50% growth inhibition
Procedure: as §6, §2, §3, §4

CC#CC1=CC=C(C#CC#CC2CO2)SS1 (stereo not shown) [Thiarubrine D]
MIC (Streptococcus faecalis): 10 µg/mL (≈ 40.9 µM) | MIC (Aspergillus [1]; No. 21, strain 05): 0.032 µg/mL (≈ 0.131 µM) | MIC (Aspergillus [1]; No. 34, strain F604): 0.064 µg/mL (≈ 0.262 µM) | MIC (Pseudomonas aeruginosa; 21 h, No. 12, strain 141): > 10 µg/mL | MIC (Pseudomonas aeruginosa; 21 h, No. 13, strain 205): > 10 µg/mL | MIC (Pseudomonas aeruginosa; 21 h, No. 14, strain 3E5): 10 µg/mL (≈ 40.9 µM) | MIC (Pseudomonas aeruginosa; ATCC27853, 21 h, No. 4, ATCC 27853): 10 µg/mL (≈ 40.9 µM) | MIC (Zanthomonas maltophilia): 10 µg/mL (≈ 40.9 µM) | MIC (Escherichia coli): 1 µg/mL (≈ 4.09 µM) | MIC (Enterobacter cloacoe; Enterobacter, 21 h, No. 19, strain 1A5): 1 µg/mL (≈ 4.09 µM) | Minimal Inhibitory Concentration (Enterobacter cloacoe; No. 20, strain 9E5): 1,000 ng/ml | MIC (Enterobacter sp.): 10 µg/mL (≈ 40.9 µM) | MIC (Klebsiella pneumoniae): 10 µg/mL (≈ 40.9 µM) | MIC (Staphylococcus epidermis): 10 µg/mL (≈ 40.9 µM) | MIC (Klebsiella sp.): 1 µg/mL (≈ 4.09 µM) | MIC (Listeria monocytogenes; Listeria monocytogenes, 21 h, No. 28, strain 106): 10 µg/mL (≈ 40.9 µM) | Minimal Inhibitory Concentration (Listeria monocytogenes; No. 29, strain 301): 10,000 ng/ml | MIC (Candida [2]; No. 22, strain 01): 0.016 µg/mL (≈ 0.0655 µM) | MIC (Candida [2]; No. 23, strain 02): 0.016 µg/mL (≈ 0.0655 µM) | MIC (Candida [2]; No. 24, strain 03): 0.064 µg/mL (≈ 0.262 µM) | MIC (Candida [2]; No. 25, strain R4197): 0.016 µg/mL (≈ 0.0655 µM) | MIC (Candida [2]; No. 32, strain F617): 0.008 µg/mL (≈ 0.0327 µM) | MIC (Enterococcus faecalis; No. 30, strain 1A3): 10 µg/mL (≈ 40.9 µM) | MIC (Enterococcus faecalis; No. 35, strain 207): 1 µg/mL (≈ 4.09 µM) | MIC (Acinetobacter; Acinetobacter, 21 h, No. 17, strain C42): 1 µg/mL (≈ 4.09 µM) | Minimal Inhibitory Concentration (Acinetobacter; No. 18, strain 6C10): 1,000 ng/ml | Minimal Inhibitory Concentration (Staphylococcus aureus; No. 16, strain B4287 (metacylliu res.)): 10,000 ng/ml | MIC (Staphylococcus aureus; 21 h): 10 µg/mL (≈ 40.9 µM) | MIC (Staphylococcus aureus; ATCC25923, 21 h, No. 1, ATCC 25923): 10 µg/mL (≈ 40.9 µM) | MIC (Staphylococcus aureus; ATCC29213, 21 h, No. 5, ATCC 29213): 10 µg/mL (≈ 40.9 µM) | MIC (Enterobacter aerogenes): 10 µg/mL (≈ 40.9 µM) | MIC [3]: 0.01 µg/mL (≈ 0.0409 µM) | MIC (Serratia marscenes): 10 µg/mL (≈ 40.9 µM) | MIC (Cryptococcus neoformans): 0.064 µg/mL (≈ 0.262 µM) | MIC (Candida pseudotropicalis): 10 µg/mL (≈ 40.9 µM) | Anti-Candida (Candida [4]): Y | Anti-Aspergillus (Aspergillus [5]): Y | IC50 (L1210): 0.047 µg/mL (≈ 0.192 µM) | MIC (E. coli): 0.078 µg/mL (≈ 0.319 µM) | IC50 (P815 mastocytoma): 0.085 µg/mL (≈ 0.348 µM) | IC50 (C. albicans [6]; 0 h, 0 days): 0.007 µg/mL (≈ 0.0286 µM) | IC50 (C. albicans [6]; 504 h, 21 days): 0.017 µg/mL (≈ 0.0696 µM) | IC50 (C. albicans [7]; 0 hrs., 37° C., read-out: LC50 24 Hrs.): 0.007 µg/mL (≈ 0.0286 µM) | IC50 (C. albicans [7]; 0 hrs., room temperature, read-out: LC50 24 Hrs.): 0.007 µg/mL (≈ 0.0286 µM) | IC50 (C. albicans [7]; 0.5 hrs., 37° C., read-out: LC50 24 Hrs.): 0.02 µg/mL (≈ 0.0819 µM) | IC50 (C. albicans [7]; 0.5 hrs., room temperature, read-out: LC50 24 Hrs.): 0.016 µg/mL (≈ 0.0655 µM) | IC50 (C. albicans [7]; 2 hrs., 37° C., read-out: LC50 24 Hrs.): 0.033 µg/mL (≈ 0.135 µM) | IC50 (C. albicans [7]; 2 hrs., room temperature, read-out: LC50 24 Hrs.): 0.022 µg/mL (≈ 0.09 µM) | IC50 (C. albicans [7]; 6 hrs., 37° C., read-out: LC50 24 Hrs.): 0.085 µg/mL (≈ 0.348 µM) | IC50 (C. albicans [7]; 6 hrs., room temperature, read-out: LC50 24 Hrs.): 0.042 µg/mL (≈ 0.172 µM) | IC50 (C. albicans [7]; 24 h, 37° C.): 0.21 µg/mL (≈ 0.859 µM) | IC50 (C. albicans [7]; 24 h, room temperature): 0.11 µg/mL (≈ 0.45 µM) | Light sensitivity [8]: light sensitive and breaks down under light to the corresponding thiophene | Anti-bacterial (bacteria): Y | IC50 (C. albicans [9]; Table 1, read-out: Concentration causing 50% growth inhibition): 0.0006 µg/mL (≈ 0.00246 µM) | IC50 (C. albicans [9]; Table 4, read-out: Minimal concentration causing 50% growth inhibition): 0.0006 µg/mL (≈ 0.00246 µM) | selectivity ratio at 24 h [10]: 800 | IC50 (3T3): 0.48 µg/mL (≈ 1.96 µM)
